# Reference: patent US7927799B2, “Inhibitors of PGHS-2Transactivator activity” (Ordway Research Institute, priority 2005, dated 2011)
# What was measured:
# PGE2 production = PGE2 production in cells by ELISA; type: cell-based, human; details: DU145 and UM-SCC-22B cells, 12 h; PMA 100 nM, NS398, indomethacin, PD98059 each 10 μM
# Protocol: Cells were plated in 48-well culture dishes and treated or without PMA (100 nM), NS398 (10 μM), indomethacin (10 μM) or PD98059 (10 μM) for 12 h. Cells were transferred to 200 μl PBS for the last 30 min. Samples were then collected and subjected to quantitative analysis of PGE2 by ELISA. The results are shown as mean±SD of results from three representative studies.
# PGHS-2 promoter = experiment: Chromatin immunoprecipitation (ChIP) of PGHS-2 binding to the PGHS-2 promoter; type: cell-based, human; details: 12 h, PMA 100 nM, PDTC 100 μM, PD98059 10 μM
# Protocol: (§1) A: ChIP was performed with PGHS-2 antibody, using UM-SCC-22B (22B) cells constitutively expressing PGHS-2, and in the absence (Con) or presence of PMA (100 nM), PDTC (100 μM) or PD98059 (PD, 10 μM) for 12 h. Input and immunoprecipitated (IP) DNA was amplified by using primers for MDM2, PGHS-2 promoter and PGHS-2 ORF, and the amplified DNAs were then separated by electrophoresis and scanned with the VersaDOC™ Imaging System.
# (§2) In ChIP experiments in prostate cancer cells, using monoclonal anti-PGHS-2, we compared the amount of immunoprecipitable PGHS-2 promoter sequence with the amount of input DNA for each sample; a PGHS-2 ORF primer served as a negative control. […] PGHS-2 also bound to the promoter region of MDM2.
# Chromatin immunoprecipitation was performed as described by Luo et al. (1998) and Braunstein et al. (1996). Aliquots of cells (6 ×10^6) in monolayers were treated with 1% formaldehyde for 15 min at room temperature to effect crosslinking. Monolayers were then washed twice with PBS. Extracts were prepared by scraping cells in 1 ml of buffer (150 mM NaCl, 1% NP-40, 0.5% DOC, 0.1% SDS, 50 mM Tris [pH 8.0], 5 mM EDTA) that contained the protease inhibitors leupeptin (10 µg/ml) and pepstatin A (10 µg/ml), phosphatase inhibitors (50 mM NaF and 0.2 mM sodium orthovanadate) and the deacetylase inhibitor, trichostatin A, 5 µM (Calbiochem, San Diego, Calif.). Cell lysates were sonicated to yield chromatin fragments of approximately 600 bp, as assessed by agarose gel electrophoresis. Immunoprecipitation was carried out with anti-p53 (Santa Cruz, Santa Cruz, Calif.), anti-phosphoSer392-p53 (Cell Signaling, Beverly, Mass.), or anti-acetylated p53 (Upstate Biotechnology, Lake Placid, N.Y.). For studies of the PGHS-2 promoter, anti-PGHS-2 (Cayman) was used. […] Relative levels of DNA were determined with QuantifyOne software (Bio-Rad Laboratories, Inc., Hercules, Calif.).
# MDM2 promoter = experiment: Chromatin immunoprecipitation (ChIP) of PGHS-2 binding to the MDM2 promoter; type: cell-based, human; details: 12 h, PDTC 100 μM, PD98059 10 μM
# Protocol: as §1, §2
# Chromatin immunoprecipitation was performed as described by Luo et al. (1998) and Braunstein et al. (1996). Aliquots of cells (6 ×10^6) in monolayers were treated with 1% formaldehyde for 15 min at room temperature to effect crosslinking. Monolayers were then washed twice with PBS. […] Cell lysates were sonicated to yield chromatin fragments of approximately 600 bp, as assessed by agarose gel electrophoresis. […] Relative levels of DNA were determined with QuantifyOne software (Bio-Rad Laboratories, Inc., Hercules, Calif.).
# [1] = tested on: PGHS-2 protein expression; experiment: PGHS-2 protein by immunoblotting of nuclear/cytosol proteins; type: cell-based, human; details: 12 h, PMA 100 nM; for PGHS-2 protein / PGHS-2 expression: confluent UM-SCC-22B cells, PD98059 10 μM, SB203580 10 μM, PDTC 100 μM
# Protocol: A: Effects of PKC activation or signaling pathway inhibitors on PGHS-2 expression. UM-SCC 22B cells were allowed to grow to confluence in 10 cm culture dishes, and then received either control medium (lane 1) or medium containing PMA (lane 2, 100 nM), PD98059 (PD, lane 3, 10 μM), SB203580 (SB, lane 4, 10 μM) or PDTC (lane 5, 100 μM) for 16 h. Cell monolayers were harvested and 40 μg nuclear protein were subjected to immunoblotting with anti-human PGHS-2 (upper panel) or anti-pMAPK (pERK1/2, lower panel). […] Results shown are the means±SD from three similar experiments.
# Fractionation of cells in a microfuge and preparation of nucleoproteins was by a previously reported method (Lin et al., 2002). Nuclear extracts were prepared by resuspension of the crude nuclear fraction in high salt buffer (420 mN NaCl, 20% glycerol) at 4° C. with rocking for 1 h. The supernatants were then collected after subsequent centrifugation at 4° C. and 13,000 rpm for 10 min.
# human PGHS-2 promoter = experiment: PGHS-2 promoter (-831/+123) luciferase reporter assay; type: cell-based; details: UM-SCC-22B cells, 12 h; PMA 100 nM, PD98059 10 μM, PDTC 100 μM, SB203580 10 μM
# Protocol: UM-SCC-22B cells were transfected with the −831/+123 PGHS-2 promoter constructs fused to a luciferase reporter or the luciferase reporter with the SV 40 promoter (pGL2 promoter).
# Aliquots of cells were treated with PMA (100 mM), PD98059 (10 μM), PDTC (100 μM), or SB203580 (10 μM) for 12 h. Cultures were co-transfected with β-galactosidase reporter plasmids, and luciferase activity, corrected for β-galactosidase activity, measured and expressed as the mean±SD of triplicate culture determinations from three experiments.
# To assess PGHS-2 promoter activity in UM-SCC-22B cells, the proximal −831/+123 base pairs of the human PGHS-2 promoter were fused to a luciferase reporter (pGHS-2 LUC) (Cao et al., 1999). This PGHS-2 reporter or SV40 LUC (pGL2 promoter) were transfected into near confluent UM-SCC-22B tumor cells.
# [2] = tested on: PGHS-2 / p300 association; experiment: Co-immunoprecipitation of nuclear PGHS-2 with p300; type: cell-based, human; details: UM-SCC-22B cells, PMA 100 nM, 12 h
# Protocol: (§3) Confluent UM-SCC-22B (22B) cells were treated with PMA, 100 nM, or solvent alone for 12 h. Cell nuclei were prepared (Lin et al., 1999) and immunoprecipitated with antibody to PGHS-2. Immunoprecipitated proteins were separated by gel electrophoresis and immunoblotted with antibody to c-Fos, MDM2 or p300. Shown are representative immunoblots from 3 similar experiments. Co-localization of c-Fos with PGHS-2 is seen in nuclei of UM-SCC-22B cells.
# (§4) The techniques used were those previously described by our laboratory (Lin et al., 1999). In brief, nucleoproteins were separated on discontinuous SDS-PAGE (9% gels) and then transferred by electroblotting to Immobilon membranes (Millipore, Bedford, Mass.). After blocking with 5% milk in Tris-buffered saline containing 0.1% Tween, the membranes were incubated with various antibodies overnight. Secondary antibodies were either goat anti-rabbit IgG (1:1000) or rabbit anti-mouse IgG (1:1000) (Dako, Carpenteria, Calif.), depending upon the origin of the primary antibody. Immunoreactive proteins were detected by chemiluminescence.
# [3] = tested on: PGHS-2 / c-Fos association; experiment: Co-immunoprecipitation of nuclear PGHS-2 with c-Fos; type: cell-based, human; details: UM-SCC-22B cells, PMA 100 nM, 12 h
# Protocol: as §3, §4
# PGHS-2 mRNA = PGHS-2 mRNA levels by RT-PCR; type: cell-based, human; details: PMA 100 nM, 8 h; ECV 304, DU145 and UM-SCC-22B cells
# Protocol: B: PGHS-2 mRNA levels in ECV 304, DU145 and UM-SCC-22B cells. Confluent cells were treated with or without PMA (100 nM) for 8 h. Total RNA samples were harvested and subjected to RT-PCR using PGHS-2 or GAPDH primers (top and bottom panels, respectively).
# [4] = tested on: PGHS-2 / MDM2 association; experiment: Co-immunoprecipitation of nuclear PGHS-2 with MDM2; type: cell-based, human; details: UM-SCC-22B cells, PMA 100 nM, 12 h
# Protocol: as §3, §4
# [5] = tested on: PGHS-1 protein expression; experiment: PGHS-1 protein by immunoblotting; type: cell-based, human; details: PMA 100 nM, 12 h; cancer cell lines
# Protocol: FIG. 2. Expression of PGHS-2 in ECV 304, DU145 and UM-SCC-22B (22B) cells A: Constitutive expression of PGHS-2 protein in ECV 304, DU145 and UM-SCC-22B cells. Cells were grown to confluence in 10 cm dishes. Monolayers were treated with or without PMA (100 nM) for 12 h; nuclear proteins were then harvested and subjected to immunoblotting with antihuman PGHS-2 (panel 1) or -PGHS-1 (panel 2).
# as §4
binding of PGHS-2 to the PGHS-2 promoter (PGHS-2 promoter),binding of PGHS-2 to the MDM2 promoter (MDM2 promoter),Structure (SMILES),PGE2 production (PGE2 production),PGHS-2 protein / PGHS-2 expression [1],PGHS-2 promoter activity (luciferase) (human PGHS-2 promoter),other results
–,–,CS(=O)(=O)Nc1ccc([N+](=O)[O-])cc1OC1CCCCC1 [NS398],decreased PGE2 production in cancer cells to basal levels,–,–,–
inhibited,inhibited,COc1cccc(-c2cc(=O)c3ccccc3o2)c1N [PD98059],decreased PGE2 production in cancer cells to basal levels,decreased to very low levels,inhibited,–
inhibited,inhibited,"S=C(S)N1CCCC1 [PDTC, pyrrolidine dithiocarbamate]",–,minimally inhibited,inhibited,–
–,–,C[S+]([O-])c1ccc(-c2nc(-c3ccncc3)c(-c3ccc(F)cc3)[nH]2)cc1 (stereo not drawn) [SB203580],–,minimally inhibited,inhibited,–
–,–,COc1ccc2c(c1)c(CC(=O)O)c(C)n2C(=O)c1ccc(Cl)cc1 [indomethacin],decreased PGE2 production in cancer cells to basal levels,–,–,–

Structure (SMILES),binding of PGHS-2 to the PGHS-2 promoter (PGHS-2 promoter),binding of PGHS-2 to the MDM2 promoter (MDM2 promoter),PGE2 production (PGE2 production),PGHS-2 protein / PGHS-2 expression [1],PGHS-2 promoter activity (luciferase) (human PGHS-2 promoter),other results
"CCCCCCCCCCCCCC(=O)O[C@@H]1[C@@H](C)[C@@]2(O)[C@@H](C=C(CO)C[C@]3(O)C(=O)C(C)=C[C@@H]23)[C@@H]2C(C)(C)[C@]12OC(C)=O [PMA, phorbol-12-myristate-13-acetate]",minimal increases,–,did not significantly increase,increase,only negligibly increased,"nuclear association of PGHS-2 with p300 [2]: little increase; nuclear association of PGHS-2 with c-Fos [3]: marked increase; abundance of PGHS-2 mRNA (PGHS-2 mRNA): increased; cytosolic PGHS-2 [1]: increased; abundance of PGHS-2 protein in nuclei ([1]; ECV 304, DU145 and UM-SCC-22B cells): increased; nuclear association of PGHS-2 with MDM2 [4]: little increase; abundance of PGHS-1 [5]: no effect"
